In patent US5532257A, “Benzothiazole compound, production thereof and use thereof” (Senju Pharmaceutical Co., Ltd, priority 1993, dated 1996):

Key:
[1] = tested on: Sorbitol accumulation in erythrocytes; test: Inhibitory action on sorbitol accumulation in tissues of rats with experimental (streptozotocin) diabetes: erythrocytes; format: in vivo, Sprague-Dawley rats; details: % of control (control = 100%), measured 3 hours after final administration
Protocol: (§1) 2) Inhibitory action on sorbitol accumulation in tissues of rats with experimental diabetes
(§2) Test Drugs: Compound of the invention and EPALRESTAT (described in Japanese Patent Unexamined Publication No. 40478/1982)
(§3) Sprague-Dawley rats (male, 6 weeks old, 5-6 per group) were fasted for 18 hours and injected with streptozotocin (SIGMA, 60 mg/kg) via the tail vein under etherization to prepare rats with diabetes.
(§4) The various compounds were orally administered at 4, 8 and 24 hours after the injection of streptozotocin, at 10 mg/kg or 30 mg/kg as a 0.5% carboxymethylcellulose suspension. During the administrations, the rats were raised under free access to feed and water and the sorbitol content in the tissues (erythrocytes, sciatic nerve, lens) was determined 3 hours after the final administration, according to the enzyme method of H. Y. Bergmeyer et al. [Methods of Enzymatic Analysis, vol. 3, 1323-1330 (1974)]with the use of SDH (sorbitol dehydrogenase) and NAD (β-nicotinamide adenine dinucleotide). The results are expressed in percent (%) relative to the value of a control group administered with 0.5% carboxymethylcellulose solution (solvent) instead of the compound, which was taken as 100%.

[2] = tested on: Sorbitol accumulation in lens; test: Inhibitory action on sorbitol accumulation in tissues of rats with experimental (streptozotocin) diabetes: lens; format: in vivo, Sprague-Dawley rats; details: % of control (control = 100%), measured 3 hours after final administration
Protocol: as §1, §2, §3, §4

[3] = tested on: Sorbitol accumulation in sciatic nerve; test: Inhibitory action on sorbitol accumulation in tissues of rats with experimental (streptozotocin) diabetes: sciatic nerve; format: in vivo, Sprague-Dawley rats; details: % of control (control = 100%), measured 3 hours after final administration
Protocol: as §1, §2, §3, §4

ICR mice = details: mouse, in vivo
Protocol: The acute toxicity (safety) of the compound of the present invention was confirmed by the following method.
Normal ICR mice (male, 7 weeks old, 5 per group) were fasted for 18 hours and the compound (300 mg/kg) of Example 37 was orally administered as a 0.5% carboxymethylcellulose suspension. To the control group, a 0.5% carboxymethylcellulos e solution alone was orally administered and observation was continued for 14 days thereafter, during which period the mice were allowed to take feed and water freely.

aldose reductase = target: T1, aldose reductase (Sus scrofa, UniProt P80276); test: Aldose reductase inhibitory action (swine lens enzyme, dl-glyceraldehyde substrate, NADPH, absorbance change at 340 nm); format: biochemical; details: 3 mM dl-glyceraldehyde, 0.1 mM NADPH, pH 6.2, 25° C., 2 minutes, read-out: IC50 (concentration inhibiting the aldose reductase activity by 50%)
T1 construct: swine lenses freeze-stored at -80° C. were homogenized with distilled water; from tissue; host or cells: swine lens
Protocol: That is, swine lenses freeze-stored at -80° C. were homogenized with distilled water and cetrifuged at 10,000 G for 15 minutes. The supernatant was prepared into a 40% ammonium sulfate solution and subjected to cetrifugation at 10,000 G for 10 minutes.
The activity of aldose reductase was determined by the above-mentioned method of S. Hayman et al. That is, the above-mentioned enzyme solution (25 μl) and a drug solution (25 μl) dissolved in 1% DMSO at various concentrations were added to a 40 mM phosphate buffer (200 μl, pH 6.2) containing final concentrations of 0.4 M lithium sulfate, 0.1 mM NADPH (reduced type nicotinamide adenine dinucleotide phosphate) and 3 mM dl-glyceraldehyde as a substrate.
The test drug number indicates the example number to be mentioned later.

[4] = 30 mg/kg oral at 4, 8 and 24 hours after streptozotocin
[5] = 10 mg/kg oral at 4, 8 and 24 hours after streptozotocin, ** p<0.01 (Tukey)
[6] = 10 mg/kg oral at 4, 8 and 24 hours after streptozotocin, * p<0.05, ** p<0.01 (Tukey)

| SMILES | IC50 (aldose reductase) [nM] | Sorbitol accumulation, erythrocytes [1, 4] [%] | Sorbitol accumulation, lens [2, 4] [%] | Sorbitol accumulation, sciatic nerve [3, 4] [%] | death among the mice (ICR mice) | Sorbitol accumulation, erythrocytes [1, 5] [%] | Sorbitol accumulation, lens [2, 6] [%] | Sorbitol accumulation, sciatic nerve [3, 5] [%] |
| --- | --- | --- | --- | --- | --- | --- | --- | --- |
| CC(/C=C1\SC(=S)N(CC(=O)O)C1=O)=C\c1ccccc1 [EPALRESTAT, reference compound] | – | 66.5 | 89.1 | 99.9 | – | – | – | – |
| O=C(O)CCC(=O)N(Cc1nc2c(F)c(F)cc(F)c2s1)c1ccc(Cl)cc1 [Example 37, N-(4-chlorophenyl)-N-[(4,5,7-trifluorobenzothiazol-2-yl)methyl]succinamic acid] | – | – | – | – | no case of death | 16.4 | 55.4 | 17.8 |
| O=C(O)CCC(=O)N(Cc1nc2c(F)c(F)cc(F)c2s1)c1ccccc1Cl [Example 48, N-(2-chlorophenyl)-N-[(4,5,7-trifluorobenzothiazol-2-yl)methyl]succinamic acid] | – | – | – | – | – | 32.8 | 56.6 | 45.7 |
| COc1ccc(N(Cc2nc3c(F)c(F)cc(F)c3s2)C(=O)CCC(=O)O)cc1 [Example 55, N-[(4,5,7-trifluorobenzothiazol-2-yl)methyl]-N-(4-methoxyphenyl)succinamic acid] | – | – | – | – | – | 2.5 | 74.4 | 27.2 |

The next lines start with results.

| IC50 (aldose reductase) [nM] | SMILES | Sorbitol accumulation, erythrocytes [1, 4] [%] | Sorbitol accumulation, lens [2, 4] [%] | Sorbitol accumulation, sciatic nerve [3, 4] [%] | death among the mice (ICR mice) | Sorbitol accumulation, erythrocytes [1, 5] [%] | Sorbitol accumulation, lens [2, 6] [%] | Sorbitol accumulation, sciatic nerve [3, 5] [%] |
| --- | --- | --- | --- | --- | --- | --- | --- | --- |
| 13 | O=C(O)CCC(=O)N(Cc1nc2c(Cl)c(Cl)ccc2s1)c1ccc(Cl)cc1 [Example 39, N-(4-chlorophenyl)-N-[(4,5-dichlorobenzothiazol-2-yl)methyl]succinamic acid] | – | – | – | – | – | – | – |
| 13 | Cc1ccc(N(Cc2nc3c(F)c(F)cc(F)c3s2)C(=O)CCC(=O)O)cc1 [Example 41, N-[(4,5,7-trifluorobenzothiazol-2-yl)methyl]-N-(4-methylphenyl)succinamic acid] | – | – | – | – | – | – | – |
| 15 | O=C(O)CCC(=O)N(Cc1nc2c(F)c(F)cc(F)c2s1)c1ccccc1 [Example 65, N-[(4,5,7-trifluorobenzothiazol-2-yl)methyl]-N-phenylsuccinamic acid] | – | – | – | – | 6.4 | 71.8 | 4.0 |
| 13 | CSc1ccccc1N(Cc1nc2c(F)c(F)cc(F)c2s1)C(=O)CCC(=O)O [Example 72, N-[(4,5,7-trifluorobenzothiazol-2-yl)methyl]-N-(2-methylthiophenyl)succinamic acid] | – | – | – | – | 19.2 | 50.0 | 10.8 |
